# Data as given in patent US8124137B2, “Composition for prevention and/or treatment of tumors containing acacia bark derivative” (Mimozax Co., Ltd., priority 2006, dated 2012).
# Test system: mouse tumor MM46 breast cancer cells
# Assay: Tumor growth inhibition test in mice
# Type: in vivo
# Details: Positive Control group: 6.25 mg/kg intraperitoneally on days 7, 11 and 14
# Experimental: The required weighed amounts of Acacia Hot Water Extract No. 1 described in Production Example 2 were dispersed in water at 60° C. to prepare test drinks 1, 2 and 3 containing Acacia Hot Water Extract No. 1 at 7.8 mg/mL, 15.6 mg/mL and 31.3 mg/mL, respectively.
# The required weighed amounts of Acacia Hot Water Extract No. 1 described in Production Example 2 were mixed with commercially available feed to prepare test feeds 2 and 3 containing Acacia Hot Water Extract No. 1 at 15.6 mg/g and 31.3 mg/g, respectively.
# Female C3H/HeN mice were assigned to a Control 1 group, Test 1 group, Test 2 group, Test 3 group and Positive Control group as shown in the table below.
# First, 2×10^6 mouse tumor MM46 breast cancer cells were transplanted subcutaneously into the inguinal region of the mice grouped as indicated above according to the method described in Abe, S. et al., Gann 73, 91-96 (1982) and Ohasi, K. et al., Yakugaku Zasshi 113, 396-399 (1993).
# Tap water was given to the Control 1 group while Test Drinks 1 to 3 were given to the Test 1 to Test 3 groups, respectively, as drinking water, starting on the day of tumor transplantation. In addition, tap water was given to the Positive Control group, and this group was also intraperitoneally administered 6.25 mg/kg of lentinan on days 7, 11 and 14 following tumor transplantation.
# Consequently, Test Drink 2 and Test Drink 3 were replaced with tap water on day 7 of tumor transplantation. In addition, five mice each of the Test 2 group were reassigned to a Control 2 group and a Test 2a group, while five mice each of the Test 3 group were reassigned to a Control 3 group and a Test 3a group. Animals of the Control 2 group and Control 3 group were continued to be fed the control feed. The Test 2a group and Test 3a group were fed Test Feed 2 and Test Feed 3, respectively, instead of the control feed.
# Growth of the tumor transplanted subcutaneously into the inguinal regions of the mice was observed by palpation for 4 weeks every 3 or 4 days, and tumor diameter was also measured. In addition, survival times (days) and body weights were also measured. The tumors were excised and their wet weights were measured following completion of the test.
# Furthermore, the Student's t-test was used for statistical testing.
substance,measurement,setting,value
lentinan,Average tumor diameter,day 14 after transplantation,7.4 ± 6.58 mm
same,reduction rate versus Control 1 group (average tumor diameter),day 14 after transplantation,43.5%
same,Average tumor diameter,day 28 after transplantation,14.0 ± 6.12 mm
same,reduction rate versus Control 1 group (average tumor diameter),day 28 after transplantation,41.2%
